The target in data set [1] is T1, aspartate transcarbamylase (ATCase) domain of CAD (Homo sapiens, UniProt P27708).
T1 sequence (P27708 1915-2225): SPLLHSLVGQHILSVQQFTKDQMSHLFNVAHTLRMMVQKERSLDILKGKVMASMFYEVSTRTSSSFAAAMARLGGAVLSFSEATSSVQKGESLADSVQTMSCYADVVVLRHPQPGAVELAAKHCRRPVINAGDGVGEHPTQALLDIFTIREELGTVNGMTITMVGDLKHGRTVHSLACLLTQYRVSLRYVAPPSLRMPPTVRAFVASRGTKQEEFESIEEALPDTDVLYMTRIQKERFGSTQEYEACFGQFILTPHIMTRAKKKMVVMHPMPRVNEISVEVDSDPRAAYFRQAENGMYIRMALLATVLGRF
Briefly: colorimetric carbamoyl-aspartate formation assay with purified MBP-ATCase, CP titration at […] aspartate. The data set is classed as biochemical. Set-up: residues 1,915–2,225 of human CAD, N-terminal 6×His-tagged MBP fusion (MBP-ATCase).

Data set [2] deals with T1, aspartate transcarbamylase (ATCase) domain of CAD. Kind of data set: initial-rate kinetics of purified MBP-ATCase, aspartate titration in excess CP. The data set is classed as biochemical. On the set-up: residues 1,915–2,225 of human CAD, N-terminal 6×His-tagged MBP fusion (MBP-ATCase).
For data set [3] the target is unchanged. Kind of data set: initial-rate kinetics of purified MBP-ATCase, CP titration in excess aspartate (Michaelis-Menten). Format: biochemical. Set-up: residues 1,915–2,225 of human CAD, N-terminal 6×His-tagged MBP fusion (MBP-ATCase). The source says: initial-rate kinetics of purified MBP-ATCase, CP titration in excess aspartate (Michaelis-Menten) on aspartate transcarbamylase (ATCase) domain of CAD | relative initial enzymatic rates of MBP-ATCase in excess aspartate and a titration of CP.

The target is the same in data set [4]. Briefly: biochemical.
Data set [5] concerns the molecule itself. Kind of data set: SEC; affinity-purified MBP-ATCase on Superdex 200 16/600 in 20 mM Tris-HCl pH 7.2, 100 mM NaCl, 2% glycerol, 0.2 mM TCEP; trimer.

Consider `O=C(O)C[C@H](NC(=O)CP(=O)(O)O)C(=O)O` [PALA], for which the “colorimetric carbamoyl-aspartate formation assay with purified MBP-ATCase, CP ti” value in data set [1] is “initial rates were dose-dependently decreased with nanomolar doses of the classical ATCase inhibitor, PALA (N-phosphonacetyl-L-aspartate)”.

For `N[C@@H](CC(=O)O)C(=O)O` [aspartate], the “initial-rate kinetics of purified MBP-ATCase, aspartate titration in excess CP” value in data set [2] was “we measured initial enzymatic rates of MBP-ATCase in excess CP, a titration of aspartate, and three concentrations of succinate”.

Regarding `NC(=O)OP(=O)(O)O` [carbamoyl phosphate], in data set [3], the “initial-rate kinetics of purified MBP-ATCase, CP titration in excess aspartate” value was “relative initial enzymatic rates of MBP-ATCase in excess aspartate and a titration of CP. This showed saturation kinetics”.

As a reminder, the IC50 is the point on the concentration scale where inhibition reaches its midpoint. The low end stands for higher potency, the high end for lower potency. `O=C(O)CCC(=O)O` [succinate] returned a half-inhibitory concentration (IC50) in data set [4] of 1350 µM.

B1: ATCase domain of human CAD fused N-terminally to a 6×His-tagged maltose binding protein (MBP-ATCase) (domain or fragment, UniProt P27708 1915-2225, looked up)
chain: T1 sequence (P27708 1915-2225)
notes: Order of the construct: 6×His, SSG linker, MBP, two SSG linkers, TEV protease site, GS linker, CAD 1915-2225; in pET-28a(+); also called 6×His-tagged MBP-ATCase; human ATCase; source: E. coli BL21, autoinduction medium, purified (HisPur cobalt resin, SEC on Superdex 200); not shown: His6, N-terminal, kept; MBP, N-terminal, kept
What is called stoichiometry N is the number of molecules, sites or subunits per partner or assembly. Consider B1, for which, in data set [5], the “stoichiometry N” value was found to be 3.

The values are drawn from paper PMC13303085, “Succinate dehydrogenase loss suppresses pyrimidine biosynthesis via succinate-mediated inhibition of aspartate transcarbamylase” (Nature metabolism, 2026).
